pIC50: −log10 of the molar value. ≈ marks a conversion by molar mass, not a printed value. Each block holds one compound with its values, some of them ahead of it.
Key:
[1] = target: T1, Pancreatic alpha-amylase (Sus scrofa, UniProt P00690); experiment: Inhibition of porcine pancreatic alpha-amylase using 1% starch as substrate preincubated for 10 mins followed by substrate addition and measured after 10 mins by absorbance method
T1 sequence (P00690 whole entry): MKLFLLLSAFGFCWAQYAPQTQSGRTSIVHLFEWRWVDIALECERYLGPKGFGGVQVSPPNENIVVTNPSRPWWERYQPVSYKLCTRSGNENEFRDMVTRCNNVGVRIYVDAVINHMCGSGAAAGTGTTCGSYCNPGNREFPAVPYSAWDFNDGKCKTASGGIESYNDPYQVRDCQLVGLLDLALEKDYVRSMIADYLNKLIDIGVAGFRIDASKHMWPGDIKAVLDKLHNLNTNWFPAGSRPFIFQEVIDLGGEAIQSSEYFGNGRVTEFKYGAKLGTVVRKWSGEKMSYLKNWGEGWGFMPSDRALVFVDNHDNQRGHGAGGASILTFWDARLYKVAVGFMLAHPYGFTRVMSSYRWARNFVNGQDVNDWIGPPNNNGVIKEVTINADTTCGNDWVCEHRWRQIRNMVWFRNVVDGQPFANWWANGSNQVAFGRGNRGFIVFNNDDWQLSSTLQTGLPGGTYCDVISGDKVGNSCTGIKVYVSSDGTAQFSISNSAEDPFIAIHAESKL

[2] = system: Candida albicans; experiment: Antifungal activity against Candida albicans ATCC 10231 incubated for 24 hrs by broth microdilution method; type: functional
[3] = system: Escherichia coli; experiment: Antibacterial activity against Escherichia coli ATCC 8739 incubated for 24 hrs by broth microdilution method; type: functional
[4] = system: Staphylococcus aureus; experiment: Antibacterial activity against Staphylococcus aureus ATCC 6538P incubated for 24 hrs by broth microdilution method; type: functional
[5] = system: Entamoeba histolytica; experiment: Antiamoebic activity against Entamoeba histolytica HK9 ATCC 30015 incubated for 72 hrs by trypan blue staining based assay; type: functional, organism-based; details: ATCC 30015, 72 h
[6] = system: Entamoeba histolytica; experiment: Antiamoebic activity against Entamoeba histolytica HK9 ATCC 30015 by trypan blue staining based assay; type: functional, organism-based
[7] = system: Giardia intestinalis; experiment: Antigiardial activity against Giardia intestinalis WB ATCC 30957 by trypan blue staining based assay; type: functional, organism-based; details: Giardia duodenalis
[8] = system: Clostridium sporogenes; experiment: Antimicrobial activity against Clostridium sporogenes ATCC 19404 incubated for 24 hrs by broth microdilution method; type: functional
[9] = system: Escherichia coli; experiment: Antibacterial activity against Escherichia coli ATCC 35218 incubated for 24 hrs by two fold serial dilution method; type: functional
[10] = system: Bacillus spizizenii; experiment: Antibacterial activity against Bacillus subtilis ATCC 6633 incubated for 24 hrs by two fold serial dilution method; type: functional
[11] = system: Staphylococcus aureus; experiment: Antibacterial activity against Staphylococcus aureus ATCC 6538 incubated for 24 hrs by two fold serial dilution method; type: functional
[12] = system: Pseudomonas aeruginosa; experiment: Antibacterial activity against Pseudomonas aeruginosa ATCC 13525 incubated for 24 hrs by two fold serial dilution method; type: functional

pIC50 [1]: > 5.53
SMILES: Cc1ncc([N+](=O)[O-])n1CCOCc1ccccc1

MIC [2]: 170 µM (≈ 46.3 µg/mL)
SMILES: Cc1ccc(/C=N/CCn2c([N+](=O)[O-])cnc2C)cc1

MIC [2]: 170 µM (≈ 49 µg/mL)
SMILES: COc1ccc(/C=N/CCn2c([N+](=O)[O-])cnc2C)cc1

MIC [2]: 170 µM (≈ 51.6 µg/mL)
SMILES: Cc1ncc([N+](=O)[O-])n1CC/N=C/c1ccc([N+](=O)[O-])cc1

MIC [3]: 2240 µM (≈ 614 µg/mL)
MIC [4]: 2000 µM (≈ 549 µg/mL)
MIC [2]: 170 µM (≈ 46.6 µg/mL)
SMILES: Cc1ncc([N+](=O)[O-])n1CC/N=C/c1ccccc1O

MIC [3]: 760 µM (≈ 235 µg/mL)
MIC [4]: 760 µM (≈ 235 µg/mL)
MIC [2]: 170 µM (≈ 52.5 µg/mL)
SMILES: Cc1ncc([N+](=O)[O-])n1CC/N=C/c1cc(Cl)ccc1O

MIC [2]: 170 µM (≈ 49.8 µg/mL)
SMILES: Cc1ncc([N+](=O)[O-])n1CC/N=C/c1ccccc1Cl

MIC [2]: 170 µM (≈ 44.9 µg/mL)
SMILES: Cc1ncc([N+](=O)[O-])n1CC/N=C/c1cccs1

MIC [2]: 170 µM (≈ 47 µg/mL)
SMILES: Cc1ncc([N+](=O)[O-])n1CC/N=C/c1ccc(F)cc1

SMILES: Cc1ncc([N+](=O)[O-])n1CCNC(=O)/C=C/c1ccc([N+](=O)[O-])o1
pIC50 [5]: 5.27

SMILES: Cc1ncc([N+](=O)[O-])n1CCN1CCN(c2ccnc3cc(Cl)ccc23)CC1
pIC50 [5]: 6.02

pIC50 [1]: > 5.53
SMILES: COc1cc(COCCn2c([N+](=O)[O-])cnc2C)cc(OC)c1

SMILES: CCOC(=O)[C@H](CC(=O)O)NC(=O)Cn1c([N+](=O)[O-])cnc1C
pIC50 [6]: 5.66
pIC50 [7]: 5.65

SMILES: CCOC(=O)C(CCCCNC(=O)C(C)n1c([N+](=O)[O-])cnc1C)NC(=O)Cn1c([N+](=O)[O-])cnc1C (stereo not drawn)
pIC50 [6]: 5.40
pIC50 [7]: 5.42

MIC [8]: 17.1 µM (≈ 7.82 µg/mL)
SMILES: Cc1ncc([N+](=O)[O-])n1CCSc1nnc(-c2ccncc2)n1-c1cccc2ccccc12

pIC50 [1]: > 5.53
SMILES: COc1ccc(COCCn2c([N+](=O)[O-])cnc2C)cc1

SMILES: Cn1c(-c2ccncc2)n[nH]c1=S
pIC50 [6]: 5.86
pIC50 [7]: 5.81

pIC50 [1]: > 5.53
SMILES: Cc1ccc(COCCn2c([N+](=O)[O-])cnc2C)cc1

pIC50 [1]: > 5.53
SMILES: Cc1ccccc1COCCn1c([N+](=O)[O-])cnc1C

pIC50 [1]: > 5.53
SMILES: Cc1ncc([N+](=O)[O-])n1CCOCc1cccc([N+](=O)[O-])c1

pIC50 [1]: > 5.53
SMILES: Cc1ncc([N+](=O)[O-])n1CCOCc1ccc(Cl)cc1

MIC [8]: 17.8 µM (≈ 7.79 µg/mL)
SMILES: COc1ccc(-n2c(SCCn3c([N+](=O)[O-])cnc3C)nnc2-c2cccnc2)cc1
pIC50 [6]: 6.32
pIC50 [7]: 5.75

pIC50 [1]: 6.42
SMILES: Cc1cccc(COCCn2c([N+](=O)[O-])cnc2C)c1

pIC50 [1]: 5.78
SMILES: Cc1ncc([N+](=O)[O-])n1CCOCc1ccc2ccccc2c1

pIC50 [1]: > 5.53
SMILES: Cc1ncc([N+](=O)[O-])n1CCOCc1ccc(F)cc1

pIC50 [1]: > 5.53
SMILES: Cc1ncc([N+](=O)[O-])n1CCOCc1ccc[nH]1

pIC50 [1]: > 5.53
SMILES: Cc1ncc([N+](=O)[O-])n1CCOCc1ccncc1

pIC50 [1]: > 5.53
SMILES: Cc1ncc([N+](=O)[O-])n1CCOCc1cccc(Cl)c1

pIC50 [1]: > 5.53
SMILES: Cc1ncc([N+](=O)[O-])n1CCOCc1ccc(C#N)cc1

pIC50 [1]: > 5.53
SMILES: COc1cccc(COCCn2c([N+](=O)[O-])cnc2C)c1

pIC50 [1]: > 5.53
SMILES: Cc1ncc([N+](=O)[O-])n1CCOCc1ccccc1Cl

pIC50 [1]: > 5.53
SMILES: Cc1ncc([N+](=O)[O-])n1CCOCc1ccc(F)cc1Br

pIC50 [1]: > 5.53
SMILES: Cc1ncc([N+](=O)[O-])n1CCOCc1ccccc1Br

pIC50 [1]: > 5.53
SMILES: Cc1ncc([N+](=O)[O-])n1CCOCc1ccc(Br)cc1

pIC50 [1]: > 5.53
SMILES: Cc1cc(COCCn2c([N+](=O)[O-])cnc2C)ccc1[N+](=O)[O-]

MIC [8]: 29.9 µM (≈ 12.2 µg/mL)
SMILES: Cc1ncc([N+](=O)[O-])n1CCn1c(-c2ccncc2)nn(-c2ccccc2)c1=S
pIC50 [6]: 5.49
pIC50 [7]: 6.12

MIC [3]: 2.3 µM (≈ 0.804 µg/mL)
MIC [4]: 0.036 µM (≈ 0.0126 µg/mL)
SMILES: CC1(C)S[C@@H]2[C@H](NC(=O)[C@H](N)c3ccccc3)C(=O)N2[C@H]1C(=O)O [AMPICILLIN]

MIC [9]: 1.56 µg/mL (≈ 3.23 µM)
MIC [10]: 0.78 µg/mL (≈ 1.61 µM)
MIC [11]: 1.56 µg/mL (≈ 3.23 µM)
MIC [12]: 3.13 µg/mL (≈ 6.47 µM)
SMILES: NC[C@H]1O[C@H](O[C@H]2[C@H](O)[C@@H](O[C@H]3O[C@H](CO)[C@@H](O)[C@H](N)[C@H]3O)[C@H](N)C[C@@H]2N)[C@H](N)[C@@H](O)[C@@H]1O [BEKANAMYCIN]
